Results taken from patent US20240269139A1, “COMPOUNDS FOR TARGETED PROTEIN DEGRADATION OF KINASES” (DANA-FARBER CANCER INSTITUTE, INC., priority 2020, published 2024).
Where two headings read alike, the source gives them in different places.

Assays:
Assay type in all cases: cell-based
[1] = test system: protein kinases (human kinome); conditions: for logFC: CDK9 (P50750-2) protein abundance, degrader vs DMSO, down; for logFC LCK: accession P06239-3; for logFC LCK / logFC LCK (P06239-3): direction of change down
From the text: (§1) Although development of targeted protein degraders requires a POI binder, among already-liganded proteins such as kinases, it was hypothesized that different targets would have a different propensity for current approaches to degrader-mediated destruction, which was termed ‘degradability’. […] It was rationalized that the probability of identifying the same kinase as a false positive in multiple treatments is low, therefore this analysis served to also assess the robustness of our data and subsequent interpretations. […] Overall, 62 protein kinases were degraded in more than 10 independent treatments, and remarkably, 9 of these (CDK4, AURKA, FER, WEE1, BLK. LIMK2, CDK6, GAK, LIMK1) were each degraded in at least 40 of the 154 independent treatments, emphasizing their predisposition to induced degradation (FIG. 1G; Appendix I).
(§2) Next, the frequency of degradation assessment was corrected for over-representation of molecules in the full dataset by omitting replicate profiling of compounds under different experimental conditions, to remove any bias. […] Unsurprisingly, the top degradable kinases mirror those from the previous analysis (CDK4, AURKA, FER, WEE1, BLK), confirming that in sufficiently large datasets, even with over-representation of certain molecules, frequency of degradation is a good measure of general tractability.

[2] = biological target: protein kinases (human kinome) (Homo sapiens, UniProt O94804); conditions: STK10 (O94804), experiment wp016
From the text: as §1, §2

[3] = biological target: protein kinases (human kinome) (Homo sapiens, UniProt Q00535); conditions: experiment wp016; for logFC of CDK5: Accession Q00535; for logFC CDK5 (Q00535): direction of change down
From the text: as §1, §2

[4] = biological target: T1, protein kinases (human kinome) (Homo sapiens, UniProt Q08881); conditions: experiment wp016
T1 sequence (Q08881 1-620): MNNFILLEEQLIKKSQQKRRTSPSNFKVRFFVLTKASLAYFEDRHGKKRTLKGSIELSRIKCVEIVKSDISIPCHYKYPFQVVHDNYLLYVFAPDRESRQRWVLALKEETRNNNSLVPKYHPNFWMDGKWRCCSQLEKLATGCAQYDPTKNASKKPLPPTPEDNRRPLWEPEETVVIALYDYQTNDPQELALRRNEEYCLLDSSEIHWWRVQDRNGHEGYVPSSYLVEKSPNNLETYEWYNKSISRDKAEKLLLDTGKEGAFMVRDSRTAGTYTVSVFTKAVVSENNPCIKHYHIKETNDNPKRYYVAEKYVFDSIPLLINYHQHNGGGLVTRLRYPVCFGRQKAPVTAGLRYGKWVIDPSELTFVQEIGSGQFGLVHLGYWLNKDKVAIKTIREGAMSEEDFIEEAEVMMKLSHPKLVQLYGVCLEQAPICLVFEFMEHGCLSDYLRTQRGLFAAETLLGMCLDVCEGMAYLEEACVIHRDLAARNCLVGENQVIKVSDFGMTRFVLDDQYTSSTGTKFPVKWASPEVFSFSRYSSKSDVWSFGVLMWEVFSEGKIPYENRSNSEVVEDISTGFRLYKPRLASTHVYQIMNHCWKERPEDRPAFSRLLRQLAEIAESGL
From the text: as §1, §2

[5] = biological target: protein kinases (human kinome) (Homo sapiens, UniProt P16591); conditions: for logFC of FER (P16591-1): Experiment wp016, down; for logFC of FER: FER P16591-1, experiment wp016
From the text: as §1, §2

[6] = biological target: protein kinases (human kinome) (Homo sapiens, UniProt P24941); conditions: experiment wp016
From the text: as §1, §2

[7] = biological target: protein kinases (human kinome) (Homo sapiens, UniProt P53671); conditions: experiment wp016; for logFC LIMK2: LIMK2 (P53671), down; for logFC of LIMK2: LIMK2 P53671
From the text: as §1, §2

[8] = biological target: protein kinases (human kinome) (Homo sapiens, UniProt P50613); conditions: for logFC: CDK7 (P50613) protein abundance, degrader vs DMSO, down; for logFC CDK7: CDK7 P50613, experiment wp016
From the text: as §1, §2

[9] = biological target: protein kinases (human kinome) (Homo sapiens, UniProt P11802); conditions: experiment wp016
From the text: as §1, §2

[10] = biological target: protein kinases (human kinome) (Homo sapiens, UniProt P30291); conditions: experiment wp016
From the text: as §1, §2

[11] = biological target: protein kinases (human kinome) (Homo sapiens, UniProt Q9NSY1); conditions: BMP2K Q9NSY1; experiment wp016
From the text: as §1, §2

[12] = biological target: protein kinases (human kinome) (Homo sapiens, UniProt Q2M2I8); conditions: experiment wp016
From the text: as §1, §2

[13] = biological target: protein kinases (human kinome) (Homo sapiens, UniProt Q00534); conditions: for logFC CDK6: CDK6 (Q00534), direction down, experiment wp016; for logFC of CDK6 (Q00534): Experiment wp016, down
From the text: as §1, §2

[14] = biological target: T2, protein kinases (human kinome) (Homo sapiens, UniProt O14965); conditions: experiment wp016
T2 sequence (O14965 1-403): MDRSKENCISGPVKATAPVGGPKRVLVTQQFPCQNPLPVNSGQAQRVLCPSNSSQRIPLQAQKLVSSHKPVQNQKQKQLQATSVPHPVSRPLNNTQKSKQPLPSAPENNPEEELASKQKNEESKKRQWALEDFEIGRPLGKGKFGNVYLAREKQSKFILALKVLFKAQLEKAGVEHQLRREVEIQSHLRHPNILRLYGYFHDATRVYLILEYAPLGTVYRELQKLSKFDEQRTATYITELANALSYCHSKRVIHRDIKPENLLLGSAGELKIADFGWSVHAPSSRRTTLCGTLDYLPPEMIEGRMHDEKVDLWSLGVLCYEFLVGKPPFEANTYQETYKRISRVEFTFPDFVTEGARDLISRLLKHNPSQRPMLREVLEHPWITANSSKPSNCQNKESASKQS
From the text: as §1, §2

[15] = biological target: protein kinases (human kinome) (Homo sapiens, UniProt Q14004); conditions: experiment wp016
From the text: as §1, §2

[16] = biological target: protein kinases (human kinome) (Homo sapiens, UniProt Q14289); conditions: for logFC: PTK2B (Q14289-1) protein abundance, degrader vs DMSO, down; for logFC PTK2B: accession Q14289-1, experiment wp016, direction of change down
From the text: as §1, §2

[17] = biological target: protein kinases (human kinome) (Homo sapiens, UniProt P51451); conditions: for logFC of BLK: BLK P51451, experiment wp016; for logFC of BLK (P51451): Experiment wp016, down
From the text: as §1, §2

[18] = biological target: protein kinases (human kinome) (Homo sapiens, UniProt Q00537); conditions: experiment wp016; for logFC of CDK17: Accession Q00537; for logFC CDK17 (Q00537): direction of change down
From the text: as §1, §2

[19] = biological target: protein kinases (human kinome) (Homo sapiens, UniProt Q9NYV4); conditions: experiment wp016
From the text: as §1, §2

[20] = AAK1, accession Q2M218-1, direction of change down

Sequence of protein kinases (human kinome) (Homo sapiens, UniProt Q2M2I8) (Q2M2I8 whole entry): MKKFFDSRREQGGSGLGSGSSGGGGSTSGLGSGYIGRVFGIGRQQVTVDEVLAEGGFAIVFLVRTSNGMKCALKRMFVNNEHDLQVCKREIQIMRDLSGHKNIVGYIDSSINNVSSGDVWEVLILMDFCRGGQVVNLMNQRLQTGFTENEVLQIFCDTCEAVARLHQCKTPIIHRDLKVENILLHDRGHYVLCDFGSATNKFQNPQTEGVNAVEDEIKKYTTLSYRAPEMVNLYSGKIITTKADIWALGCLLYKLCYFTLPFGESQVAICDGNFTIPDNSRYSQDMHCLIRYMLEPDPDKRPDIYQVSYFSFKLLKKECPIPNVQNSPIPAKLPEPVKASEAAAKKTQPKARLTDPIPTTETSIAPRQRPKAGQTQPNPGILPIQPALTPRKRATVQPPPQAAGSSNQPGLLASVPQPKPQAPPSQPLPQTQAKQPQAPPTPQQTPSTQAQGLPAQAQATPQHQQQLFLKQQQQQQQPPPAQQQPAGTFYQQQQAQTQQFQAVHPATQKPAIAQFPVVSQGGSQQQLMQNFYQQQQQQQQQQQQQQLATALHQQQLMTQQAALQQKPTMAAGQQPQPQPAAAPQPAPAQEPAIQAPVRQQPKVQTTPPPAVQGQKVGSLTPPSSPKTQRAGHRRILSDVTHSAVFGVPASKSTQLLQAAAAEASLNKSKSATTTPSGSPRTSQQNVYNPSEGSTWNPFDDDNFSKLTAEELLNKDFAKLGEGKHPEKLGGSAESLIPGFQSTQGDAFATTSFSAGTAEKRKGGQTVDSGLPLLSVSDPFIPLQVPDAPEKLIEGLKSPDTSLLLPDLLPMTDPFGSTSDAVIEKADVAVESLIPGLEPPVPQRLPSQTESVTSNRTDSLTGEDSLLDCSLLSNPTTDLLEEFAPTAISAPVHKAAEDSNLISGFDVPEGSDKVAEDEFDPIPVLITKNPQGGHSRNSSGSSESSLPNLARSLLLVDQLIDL
Sequence of protein kinases (human kinome) (Homo sapiens, UniProt O94804) (O94804 whole entry): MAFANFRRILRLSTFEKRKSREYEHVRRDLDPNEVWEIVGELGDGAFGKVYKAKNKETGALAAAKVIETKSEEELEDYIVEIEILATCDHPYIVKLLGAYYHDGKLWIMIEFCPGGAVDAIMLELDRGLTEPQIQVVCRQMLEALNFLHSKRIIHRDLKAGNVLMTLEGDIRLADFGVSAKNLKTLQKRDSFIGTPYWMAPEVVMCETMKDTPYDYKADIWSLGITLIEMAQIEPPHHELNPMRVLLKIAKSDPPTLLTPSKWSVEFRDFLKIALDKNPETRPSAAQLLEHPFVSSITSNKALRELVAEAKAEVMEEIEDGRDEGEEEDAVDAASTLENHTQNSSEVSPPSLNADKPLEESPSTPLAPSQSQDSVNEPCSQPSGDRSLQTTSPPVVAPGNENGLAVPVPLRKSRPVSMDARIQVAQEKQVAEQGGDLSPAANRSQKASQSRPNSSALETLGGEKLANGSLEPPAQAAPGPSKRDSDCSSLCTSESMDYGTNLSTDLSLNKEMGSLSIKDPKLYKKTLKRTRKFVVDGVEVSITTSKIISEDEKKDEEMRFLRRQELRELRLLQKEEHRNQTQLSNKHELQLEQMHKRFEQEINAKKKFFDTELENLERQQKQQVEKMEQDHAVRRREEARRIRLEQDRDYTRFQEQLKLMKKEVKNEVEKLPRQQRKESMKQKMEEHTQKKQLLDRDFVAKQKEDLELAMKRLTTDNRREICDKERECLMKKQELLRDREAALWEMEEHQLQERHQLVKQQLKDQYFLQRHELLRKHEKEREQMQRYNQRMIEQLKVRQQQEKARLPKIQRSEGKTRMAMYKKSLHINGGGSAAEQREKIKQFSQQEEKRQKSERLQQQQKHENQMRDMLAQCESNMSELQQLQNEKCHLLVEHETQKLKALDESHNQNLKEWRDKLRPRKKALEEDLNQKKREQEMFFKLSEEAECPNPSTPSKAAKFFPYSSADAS
Sequence of protein kinases (human kinome) (Homo sapiens, UniProt Q00534) (Q00534 whole entry): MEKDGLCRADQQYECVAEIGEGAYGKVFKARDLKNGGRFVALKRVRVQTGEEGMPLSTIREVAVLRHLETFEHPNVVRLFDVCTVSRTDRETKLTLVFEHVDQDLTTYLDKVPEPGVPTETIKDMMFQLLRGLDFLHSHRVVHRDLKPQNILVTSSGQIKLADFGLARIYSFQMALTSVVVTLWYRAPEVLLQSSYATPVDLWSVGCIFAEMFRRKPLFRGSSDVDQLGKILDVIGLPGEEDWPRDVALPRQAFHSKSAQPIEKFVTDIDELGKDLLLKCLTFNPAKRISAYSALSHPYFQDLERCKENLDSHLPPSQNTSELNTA
Sequence of protein kinases (human kinome) (Homo sapiens, UniProt Q00535) (Q00535 whole entry): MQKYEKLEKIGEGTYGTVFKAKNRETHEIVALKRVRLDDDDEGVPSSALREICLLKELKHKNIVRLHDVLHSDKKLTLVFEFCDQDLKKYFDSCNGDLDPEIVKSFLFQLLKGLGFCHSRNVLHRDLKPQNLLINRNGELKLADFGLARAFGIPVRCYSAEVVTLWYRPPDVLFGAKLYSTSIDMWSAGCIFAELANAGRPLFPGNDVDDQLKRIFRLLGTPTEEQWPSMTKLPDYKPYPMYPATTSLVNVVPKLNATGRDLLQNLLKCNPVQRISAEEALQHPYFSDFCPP
Sequence of protein kinases (human kinome) (Homo sapiens, UniProt P53671) (P53671 whole entry): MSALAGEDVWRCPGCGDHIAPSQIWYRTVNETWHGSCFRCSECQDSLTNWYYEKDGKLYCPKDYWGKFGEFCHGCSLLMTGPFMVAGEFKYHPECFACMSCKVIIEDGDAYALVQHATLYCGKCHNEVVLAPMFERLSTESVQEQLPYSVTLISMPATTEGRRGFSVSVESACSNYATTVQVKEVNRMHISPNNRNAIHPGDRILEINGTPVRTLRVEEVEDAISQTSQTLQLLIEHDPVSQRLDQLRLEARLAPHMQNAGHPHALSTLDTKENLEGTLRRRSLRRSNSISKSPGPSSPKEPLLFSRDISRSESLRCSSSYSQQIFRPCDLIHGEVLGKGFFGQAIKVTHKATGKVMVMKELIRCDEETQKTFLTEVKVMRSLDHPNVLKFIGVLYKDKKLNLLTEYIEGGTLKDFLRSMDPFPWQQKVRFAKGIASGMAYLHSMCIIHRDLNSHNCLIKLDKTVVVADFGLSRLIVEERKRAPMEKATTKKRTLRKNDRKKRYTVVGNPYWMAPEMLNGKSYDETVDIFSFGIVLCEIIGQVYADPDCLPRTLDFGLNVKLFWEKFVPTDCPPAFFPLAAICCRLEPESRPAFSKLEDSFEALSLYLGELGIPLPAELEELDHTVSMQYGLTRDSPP
Sequence of protein kinases (human kinome) (Homo sapiens, UniProt P51451) (P51451 whole entry): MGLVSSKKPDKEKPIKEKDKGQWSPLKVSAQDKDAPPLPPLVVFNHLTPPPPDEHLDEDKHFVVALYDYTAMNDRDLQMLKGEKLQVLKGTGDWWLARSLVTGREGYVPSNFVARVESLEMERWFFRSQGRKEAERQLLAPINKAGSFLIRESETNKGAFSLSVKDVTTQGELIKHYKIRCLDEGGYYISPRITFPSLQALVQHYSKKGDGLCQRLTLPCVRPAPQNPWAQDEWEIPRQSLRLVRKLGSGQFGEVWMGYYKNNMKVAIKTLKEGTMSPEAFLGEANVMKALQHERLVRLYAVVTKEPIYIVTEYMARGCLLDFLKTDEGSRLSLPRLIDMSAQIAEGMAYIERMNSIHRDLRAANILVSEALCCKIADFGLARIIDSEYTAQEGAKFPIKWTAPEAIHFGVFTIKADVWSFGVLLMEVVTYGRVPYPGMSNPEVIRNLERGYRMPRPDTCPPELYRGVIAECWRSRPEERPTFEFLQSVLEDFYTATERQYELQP
Sequence of protein kinases (human kinome) (Homo sapiens, UniProt Q14289) (Q14289 whole entry): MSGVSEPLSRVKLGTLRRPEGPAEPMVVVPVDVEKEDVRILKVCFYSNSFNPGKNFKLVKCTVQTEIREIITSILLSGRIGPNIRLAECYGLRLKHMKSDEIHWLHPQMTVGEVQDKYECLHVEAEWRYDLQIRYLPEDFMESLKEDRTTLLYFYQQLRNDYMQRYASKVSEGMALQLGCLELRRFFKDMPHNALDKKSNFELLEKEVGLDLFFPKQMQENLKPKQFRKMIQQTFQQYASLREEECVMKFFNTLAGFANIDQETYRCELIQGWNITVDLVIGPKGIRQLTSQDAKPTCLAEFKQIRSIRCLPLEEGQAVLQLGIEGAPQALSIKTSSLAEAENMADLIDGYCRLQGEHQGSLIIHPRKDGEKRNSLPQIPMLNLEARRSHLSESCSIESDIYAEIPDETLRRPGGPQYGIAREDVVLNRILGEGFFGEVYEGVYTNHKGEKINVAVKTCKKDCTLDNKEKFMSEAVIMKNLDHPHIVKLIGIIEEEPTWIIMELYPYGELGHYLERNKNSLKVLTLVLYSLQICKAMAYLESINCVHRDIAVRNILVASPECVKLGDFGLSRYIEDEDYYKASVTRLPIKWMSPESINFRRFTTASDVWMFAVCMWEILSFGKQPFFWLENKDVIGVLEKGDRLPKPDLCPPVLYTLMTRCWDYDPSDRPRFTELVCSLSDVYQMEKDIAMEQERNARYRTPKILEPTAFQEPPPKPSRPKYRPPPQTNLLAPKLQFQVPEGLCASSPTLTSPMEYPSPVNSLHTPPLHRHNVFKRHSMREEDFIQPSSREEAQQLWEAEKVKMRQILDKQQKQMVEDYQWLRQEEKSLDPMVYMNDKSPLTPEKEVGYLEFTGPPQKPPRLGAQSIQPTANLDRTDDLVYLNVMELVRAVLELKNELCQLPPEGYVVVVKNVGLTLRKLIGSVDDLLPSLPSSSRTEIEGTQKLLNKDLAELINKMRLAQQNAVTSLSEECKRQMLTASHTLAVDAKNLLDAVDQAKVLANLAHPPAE
Sequence of protein kinases (human kinome) (Homo sapiens, UniProt P50613) (P50613 whole entry): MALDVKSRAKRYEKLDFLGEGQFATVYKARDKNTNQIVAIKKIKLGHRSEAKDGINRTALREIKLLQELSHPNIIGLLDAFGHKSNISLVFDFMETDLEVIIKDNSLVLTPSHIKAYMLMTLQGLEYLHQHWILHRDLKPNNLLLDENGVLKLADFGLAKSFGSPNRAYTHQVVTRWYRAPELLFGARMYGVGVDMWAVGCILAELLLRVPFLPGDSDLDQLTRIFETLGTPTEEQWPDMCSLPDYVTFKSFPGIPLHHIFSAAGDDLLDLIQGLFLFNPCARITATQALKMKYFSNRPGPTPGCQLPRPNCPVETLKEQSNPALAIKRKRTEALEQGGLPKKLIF

Row | Compound | logFC [1] | logFC LCK ([1]; experiment wp016) | logFC CDK9 (P50750-2) ([1]; experiment wp016) | logFC LCK (P06239-3) ([1]; experiment wp016) | logFC [2] | logFC ([2]; direction down) | logFC of CDK5 [3] | logFC CDK5 (Q00535) [3] | logFC ITK (Q08881) [4] | logFC ITK (Q08881) ([4]; direction of change down) | logFC of FER (P16591-1) [5] | logFC of FER [5] | logFC CDK2 (P24941-1) [6] | logFC CDK2 (P24941-1) ([6]; direction of change down) | logFC LIMK2 [7] | logFC of LIMK2 [7] | logFC [8] | logFC CDK7 [8] | logFC CDK4 (P11802) [9] | logFC WEE1 (P30291-1) [10] | other results
1 | CC(C)S(=O)(=O)c1ccccc1Nc1nc(Nc2ccc(N3CCN(CCOCCOCCNC(=O)CNc4ccc5c(c4)C(=O)N(C4CCC(=O)NC4=O)C5=O)CC3)cc2)ncc1Cl (stereo not drawn) [LT2.49] | −0.6469 | −0.6186 | −0.6469 | −0.6186 | −0.3336 | −0.3336 | −0.8608 | −0.8608 | −2.212 | −2.212 | −2.467 | −2.467 | −0.5177 | −0.5177 | −0.9573 | −0.9573 | −1.014 | −1.014 | −0.8985 | −1.314 | logFC PRKAA1 (Q13131-2) ([1]; Experiment wp016, direction down): −0.3739; logFC PRKAA1 (Q13131-2) ([1]; experiment wp016): −0.3739; logFC [11]: −0.5079; logFC BMP2K [11]: −0.5079; logFC AAK1 ([12]; AAK1 (Q2M218-1), down): −1.778; logFC AAK1 [12, 20]: −1.778; logFC CDK6 [13]: −0.6531; logFC of CDK6 (Q00534) [13]: −0.6531; logFC AURKA (O14965) [14]: −1.853; logFC CDK13 ([15]; Accession Q14004-1): −0.3839; logFC CDK13 (Q14004-1) [15]: −0.3839; logFC [16]: −3.365; logFC PTK2B [16]: −3.365; logFC of BLK [17]: −1.613; logFC of BLK (P51451) [17]: −1.613; logFC of CDK17 [18]: −0.7544; logFC CDK17 (Q00537) [18]: −0.7544; logFC CDK12 ([19]; Accession Q9NYV4-1): −0.868; logFC CDK12 ([19]; CDK12 (Q9NYV4-1)): −0.868
2 | CC(C)S(=O)(=O)c1ccccc1Nc1nc(Nc2ccc(N3CCN(CCOCCOCCOCCNC(=O)CNc4ccc5c(c4)C(=O)N(C4CCC(=O)NC4=O)C5=O)CC3)cc2)ncc1Cl (stereo not drawn) [SK.3.89] | −0.4777 | −0.449 | −0.4777 | −0.449 | −0.3539 | −0.3539 | −0.6254 | −0.6254 | −2.044 | −2.044 | −2.262 | −2.262 | −0.5953 | −0.5953 | −0.444 | −0.444 | −0.7959 | −0.7959 | −0.5177 | −1.017 | logFC AAK1 ([12]; AAK1 (Q2M218-1), down): −1.219; logFC AAK1 [12, 20]: −1.219; logFC CDK6 [13]: −0.3396; logFC of CDK6 (Q00534) [13]: −0.3396; logFC AURKA (O14965) [14]: −1.672; logFC [16]: −3.554; logFC PTK2B [16]: −3.554; logFC of BLK [17]: −1.335; logFC of BLK (P51451) [17]: −1.335; logFC of CDK17 [18]: −0.6057; logFC CDK17 (Q00537) [18]: −0.6057; logFC CDK12 ([19]; Accession Q9NYV4-1): −0.5237; logFC CDK12 ([19]; CDK12 (Q9NYV4-1)): −0.5237
